This is an account of results in article PMC11413853, “Discovery of VU6007496: Challenges in the Development of an M1 Positive Allosteric Modulator Backup Candidate” (ACS Chemical Neuroscience, 2024).

In data set [1] the test system is mice. Briefly: Mouse phenotypic seizure liability assay (modified Racine score). Format: in vivo. Conditions: 100 mg/kg i.p.; for seizure liability / behavioral convulsions (modified Racine score): male C57Bl/6 mice, 3 h. The protocol: Brain plasma concentration ratio (Kp) was calculated by dividing brain concentration by plasma concentration for each animal. Unbound brain to unbound plasma concentration ratio (Kp,uu) is calculated using the following formula: Kp,uu = (Brain ng/g x brain fu)/(plasma ng/ml x plasma fu). […]
Behavioral Manifestations of Seizure Activity
To evaluate induction of behavioral manifestation of seizure activity, C57Bl/6 mice received administration of vehicle or 100 mg/kg M1 PAM. Compounds were formulated in 30% Captisol (11) or 10% Tween 80 (2-4 and 12) (pH 7.0) at a concentration of 10 mg/mL and injected i.p. (n = 3). Animals were monitored continuously and scored for behavioral manifestations of seizure activity at 5, 10, 15, and 30 min, and 1 and 3 h. Behavioral manifestations of seizures were scored using a modified Racine scoring system.2 Briefly, a score of 0 represents no behavior alterations; score 1, immobility, mouth and facial movements, or facial clonus; score 2, head nodding, tail extension; score 3, forelimb clonus, repetitive movements; score 4, rearing and tonic clonic seizure; and score 5, continuous rearing and falling, severe generalized tonic clonic seizure.

Data set [2] is described as follows: Plasma protein binding, dog. To be noted: pH 7.4, read-out: fu,plasma dog. The data set is classed as in vitro ADME. The protocol: (§1) Plasma protein binding and Brain homogenate binding: Determination of fraction unbound (f u) in plasma was conducted in vitro via equilibrium dialysis using HTDialysis (HTD) membrane plates. The top half of the plate was filled with 100 uL of Dubelco’s Phosphate Buffered Saline, pH 7.4 (DPBS). Compounds were diluted into plasma from each species (5 µM final concentration), which was aliquoted in triplicate to the ‘bottom half’ of the prepared HTD plate wells. The HTD plate was sealed and incubated for 6 hours at 37 °C. Following incubation, each well (both top and bottom halves) were transferred (20 µL) to the corresponding wells of a 96-shallow-well (V-bottom) plate. […]
(§2) The unbound fraction (f u) was calculated following the equation below, and mean values for each species were calculated from 3 replicates.
(§3) A similar approach was used to determine the degree of brain homogenate binding, which employed the same methodology and procedure with the following modifications: 1) a final compound concentration of 1 μM was used, 2) naïve rat brains were homogenized in DPBS (1:3 composition of brain: DPBS, w/w) using a Mini-Bead Beater™ machine in order to obtain brain homogenate, which was then treated in the same manner as the plasma samples in the previously described plasma protein binding assay. Fraction unbound for both plasma and brain samples was determined using Equation 4. […]

For data set [3], the system named is cardiac ion channels. Briefly: Electrophysiology panel of cardiac ion channels (summary). Format: cell-based. To be noted: 10 μM; whole panel. An excerpt: In a 4-strain Ames assay, with and without S9, both 11 and 12 were negative.
Table S2. Effects of VU6007496 on Ion Channel Current (Charles River Study 200609.WVN)
Ion Channel Conc Mean % Standard Standard n Individual Data
(μM) Inhibition Deviation Error Points (% Inhibition)

Data set [4] in a line: Plasma protein binding, cyno. Format: in vitro ADME. Conditions: cynomolgus monkey, pH 7.4, read-out: fu,plasma cyno. The method, then: as §1, §2, §3

Entries after “also recorded” stand apart in the source; their conditions may differ.

In the case of `Cn1ccc(-c2ccc(Cc3cc(C(=O)NC4CCOCC4)nc4ccn(C)c34)cc2)n1` [compound 11], the “seizure liability / behavioral convulsions (modified Racine score)” value in data set [1] is “did not induce seizure liability; also recorded: did not cause any observed adverse effects”. The same compound displayed a total brain exposure in data set [1] (mouse) of 1.04 µM. Moreover, the fraction unbound at 6 h, 5 µM was found to be 0.06 in data set [2] and 0.026 in data set [4]. The “inhibition of cardiac ion channels” value in data set [3] is recorded as less than 17%.

With `Cn1ccc(-c2ccc(Cc3cc(C(=O)NC4CCOCC4)nc4ccsc34)cc2)n1` [compound 12], the “seizure liability / behavioral convulsions (modified Racine score)” value in data set [1] was “did not induce seizure liability; also recorded: did not cause any observed adverse effects”. Moreover, the fraction unbound at 6 h, 5 µM was determined as 0.018 in data set [2] and 0.009 in data set [4]. Further, the “inhibition of cardiac ion channels” value in data set [3] was less than 17%.
